Key:
LXRα = LXRα (Homo sapiens, UniProt Q13133); test: Receptor transactivation assay, LXRα (CV-1 cells); format: cell-based; conditions: at physiological concentrations
From the text: For PPARγ: CV-1 cells were transfected with 3x(rAOX/DR1)-tk-Luc reporter gene and an expression vector for PPARγ; for FXR: CV-1 cells were transfected with 3x(IBABP/IR1)-tk-Luc reporter gene and vectors for FXR and RXRα; for LXR: CV-1 cells were transfected with 3x(PLTP/LXRE)-tk-Luc reporter gene with vectors for LXRα or LXRβ. […] Luciferase data were normalized to co-transfected β-gal activity. Luciferase activity is expressed as percent of maximal activity obtained using specific agonists 9-cis-retinoic acid (RXR), retinoic acid (RAR), rosiglitazone (PPARγ), GW4064 (FXR), T0901317 (LXR).

primary VMB neurons = test: Nurr1 downstream gene expression in VMB neurons (real time PCR); format: cell-based, mouse; conditions: 1nM, 16 hours
Method: Ventral midbrain (VMB) from E13.5-14.5 C57BL/6 mouse embryos were dissected, triturated and plated on poly-D-lysine coated 12 well plates or glass coverslips with the serum-free chemically-defined Neurobasal medium, supplemented with 2% B27, 0.5mM L-glutamine, 50I.U./ml penicillin and 50μg/ml streptomycin (Gibco-BRL). […] For each time point, cells were washed once with phosphate buffered saline and fixed with 4% paraformaldehyde for TH immunofluorescent staining. For cell counting, 10 frames were randomly captured from each well using a Leica fluorescent microscope and a minimum of four replicates for each dose and each time point were analyzed for each experiment.
(§1) Total RNA from VMB neurons or rat substantia nigra were isolated using the RNeasy Mini Kit from Qiagen (Valencia, CA) and 1μg of total RNA was reverse transcribed using SuperScript III first-strand synthesis supermix for qRT-PCR from Invitrogen (Carlsbad, CA) according to the manufacturer's instruction. Quantitative RT-PCR was performed using Maxima SYBR Green master mix (Fermentas) in ABI Prism 7900HT in four replicates with primers amplifying the target genes. Expression level of actin was used as an internal control. Data were normalized using the 2^−ΔΔCt method. Levels of target gene mRNAs were expressed relative to those in vehicle control groups and plotted in GraphPad Prism.

[1] = Plasma protein binding by equilibrium dialysis, human plasma; format: in vitro ADME; conditions: K3EDTA control plasma, 37°C, read-out: plasma protein binding, bound (converted)
Method: (§2) SD male rats were grouped into four groups: vehicle, 1mg/kg/day, 3mg/kg/day and 10mg/kg/day. Rats were treated with the designated dose by daily gavage. Acute plasma PK was conducted on day one and acute-on-chronic plasma PK was conducted on day 24. Pharmacokinetic assessment was conducted by collecting of blood at baseline (prior gavage), 0.25, 0.5, 1, 2, 4, 8, 12 and 24h post gavage. […] The spiked plasma was dialyzed at 37°C against an isotonic sodium phosphate buffer to achieve equilibrium. At the end of dialysis, the plasma and buffer level of IRX4204 were quantified by LC/MS/MS.

[2] = Plasma protein binding by equilibrium dialysis, rat plasma; format: in vitro ADME; conditions: K3EDTA control plasma, 37°C, read-out: plasma protein binding, bound (converted)
Method: as §2

[3] = IRX4204 content in the brain by LC/MS/MS; format: in vivo; conditions: male, SD, oral, rat, 7 days repeated dosing 10 mg/kg/day gavage, one hour after the last dose
Method: (§3) Male SD rats underwent daily gavage with 10mg/kg/day for seven days. One hour after the last dose, rats were anesthetized with ketamine/xylazine and transcardially perfused with cold saline. Brains were isolated and homogenized with two volumes of phosphate buffer using ultrasonication. A 100μl sample of the homogenate was transferred to a 1.7ml centrifuge tube and mixed with 20μl of internal standard (100ng/ml of 13-cis retinoic acid-d5 in diluent). Then the sample was deproteinized with 300μl of acetonitrile, centrifuged, and the supernatant was transferred to an autosampler vial for analysis by LC/MS/MS. The calibration standards and the internal standard (13-cis retinoic acid-d5) were diluted in acetonitrile:butylatedhydroxyanisole:ethoxyquin:triethylamine (100:0.05:0.02:0.1, v/w/v/v).
The LC/MS system was comprised of Waters Acquity Ultra Performance Liquid Chromatography (UPLC) coupled to a XEVO-TQS (Waters). The samples were analyzed by reverse-phase HPLC using a Waters Atlantis T3 column (150 × 2.1mm, 5um). The mobile phase was nebulized using heated nitrogen in a Z-spray source/interface set to electrospray negative ionization mode. The ionized compounds were detected using MS/MS. […] The detection was linear between 2.5nM to 10nM.

[4] = tested on: Nurr1 downstream genes in the SN; test: Expression of Nurr1 downstream genes in the substantia nigra after oral treatment; format: in vivo; conditions: rat, 7 days oral 10 mg/kg/day
Method: as §3, §1

6-OHDA lesioned rats [5] = test: Apomorphine-induced rotations in 6-OHDA lesioned rat model of PD; format: in vivo; conditions: 10mg/kg/day gavage for three weeks, day 24 post-lesion
Method: (§4) All surgical procedures were performed under general anesthesia with ketamine/xylazine. 2μl 6-OHDA (20 mg/ml in 0.02% ascorbic acid) was stereotaxically injected into the right striatum of male SD rats. Lesion coordinates were set according to bregma and dura in mm: ML-3.7; AP-1.0; DV-5.5. The injection rate was 2μl/5 min and the injecting needle was left for 2 minutes after injection to avoid back flow. Apomorphine-induced rotations (see below) were assessed three days post-lesion and rats with ≥ 30 full contralateral rotation/30 minutes were included in the study.
(§5) Rats were randomly grouped into vehicle control group (n = 11) and drug treatment group (n = 10). […] The control group received DMSO/corn oil (vehicle). The treatment continued for three weeks.
Apomorphine (APO)-induced rotations were performed as described by Fisher et al.. Briefly, immediately after apomorphine injection (0.5 mg/kg body weight), animals were placed in an open area. A camera monitored the animal behavior and computerized software analyzed the number of contralateral and ipsilateral rotations in 30 minutes testing. Rotations were assessed three days post-lesion and after three weeks of treatment (24 days post-lesion). Data were expressed as average contralateral turns per minute.

6-OHDA lesioned rats [6] = test: TH-immunoreactive neuron count in the SN of 6-OHDA lesioned rats; format: in vivo, rat; conditions: 10mg/kg/day gavage for three weeks, compared to the vehicle-treated group, p < 0.05
Method: as §4, §5
The caudal portion of the brains were sectioned in the coronal plane on a cryostat at 12 μm. From a random start corresponding to SNpc position, every 12th section was selected -, fixed with 4% paraformaldehyde and processed for tyrosine hydroxylase (TH) staining using mouse monoclonal anti-TH antibody (1:2000, Chemicon) and the Vectastain Elite ABC kit (Vector Lab) according to manufacturer's instruction. TH positive neurons were counted as described.

Chain of LXRα (P19793 whole entry): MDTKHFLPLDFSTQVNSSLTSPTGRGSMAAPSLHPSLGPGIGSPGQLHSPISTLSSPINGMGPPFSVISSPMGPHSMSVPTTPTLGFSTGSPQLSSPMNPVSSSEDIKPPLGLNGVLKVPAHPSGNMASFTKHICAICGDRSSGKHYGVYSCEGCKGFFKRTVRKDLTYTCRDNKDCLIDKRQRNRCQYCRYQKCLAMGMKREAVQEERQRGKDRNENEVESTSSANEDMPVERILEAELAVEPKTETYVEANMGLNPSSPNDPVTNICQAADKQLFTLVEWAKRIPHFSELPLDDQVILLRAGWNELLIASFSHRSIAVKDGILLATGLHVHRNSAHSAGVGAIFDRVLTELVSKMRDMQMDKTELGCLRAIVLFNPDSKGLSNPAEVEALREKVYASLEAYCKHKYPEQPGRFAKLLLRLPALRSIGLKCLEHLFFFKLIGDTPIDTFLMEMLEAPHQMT
Chain of LXRα (Q13133 whole entry): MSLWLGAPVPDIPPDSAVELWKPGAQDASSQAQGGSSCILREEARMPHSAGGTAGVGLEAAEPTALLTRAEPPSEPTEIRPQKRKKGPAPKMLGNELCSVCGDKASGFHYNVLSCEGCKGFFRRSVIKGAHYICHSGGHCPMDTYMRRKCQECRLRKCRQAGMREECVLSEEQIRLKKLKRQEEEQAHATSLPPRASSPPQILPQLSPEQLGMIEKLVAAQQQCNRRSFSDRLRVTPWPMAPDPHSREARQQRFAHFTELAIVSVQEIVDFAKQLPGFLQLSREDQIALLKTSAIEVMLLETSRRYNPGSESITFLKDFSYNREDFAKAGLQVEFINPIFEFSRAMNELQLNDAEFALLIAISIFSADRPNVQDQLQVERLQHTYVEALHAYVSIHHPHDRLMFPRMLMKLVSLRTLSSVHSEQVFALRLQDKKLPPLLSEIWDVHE

activation of RXR heterodimer of LXRα (LXRα): does not activate
expression of dopa-decarboxylase (DDC) (primary VMB neurons): significantly increased
fraction unbound at 1 ug/ml [1]: 0.0064
fraction unbound at 1 ug/ml [2]: 0.0249
concentration at 1 h [3]: 11.5 ± 2.9 nM
SMILES: CC(/C=C/[C@@H]1C[C@]1(C)c1ccc2c(c1)C(C)(C)CCC2(C)C)=C\C(=O)O [IRX4204]
expression of dopamine transporter (DAT) (primary VMB neurons): significantly increased
DAT mRNA level in the SN [4]: significantly increased
DDC mRNA level in the SN [4]: significantly increased
DJ-1(PARK7) mRNA level in the SN [4]: significantly increased
GRFα1 mRNA level in the SN [4]: significantly increased
Pitx3 mRNA level in the SN [4]: significantly increased
TH mRNA level in the SN [4]: significantly increased
VMAT-2 (VMAT2) mRNA expression in the SN ([4]; did not reach statistical significance): trend towards an increase
APO-induced contralateral rotations versus baseline (6-OHDA lesioned rats [5]): did not differ significantly from baseline
loss of TH-immunoreactive neurons in the SN (6-OHDA lesioned rats [6]): significantly reduced the loss
